Experimental data reported in US20230381248A1, “METHOD FOR TREATING AND/OR PREVENTING ATOPY AND ALLERGIC DISEASES BY USING BACTERIA OR COMPOSITIONS HAVING 7 ALPHA-DEHYDROXYLASE ACTIVITY, AND/OR BILE ACID RECEPTORS FXR AND/OR TGR5 AGONISTS” (NATIONAL TAIWAN UNIVERSITY HOSPITAL, priority 2022, published 2023).

Tests used:
[1] = test system: PMN-MDSC and regulatory T-cell (Treg); experiment: Induction of immune-regulatory cells by FxR and TGR5 agonist pre-treatment in the OVA allergic airway disease model, flow cytometry; type: in vivo, BALB/c mice; conditions: oral gavage 30 mg/kg/day twice a week from 3 w/o; BALF, PB, BM, Spl after aerosol OVA challenge; vs vehicle control
Protocol: (§1) The model uses ovalbumin (OVA) as the allergen to induce allergic airway inflammation of the mice. Briefly, allergen sensitization was induced in 5 w/o BALB/c mice by two intraperitoneal injection (i.p.) of 50 μg ovalbumin (OVA) plus 2 mg alum at 10-14-day interval. One week after the second OVA i.p. sensitization, 30-min aerosol 5% OVA inhalation challenge (ih) was performed for 3 consecutive days.
(§2) OVA-induced allergic airway disease was induced in 5 w/o BALB/c mice according to the protocol as depicted. […] Age- and sex-matched control mice were given the vehicle containing methyl cellulose.
The effects of FXR and TGR5 signaling in inducing both innate and adaptive immune-regulatory cells (i.e., PMN-MDSC and Treg) are investigated in this example. Mice were pre-treated by FxR and TGR5 agonists, followed by allergen sensitization and induction of allergic airway disease as depicted in FIG. 6. […] BALF represents bronchoalveolar lavage fluid, PB represents peripheral blood, BM represents bone marrow, Spl represents spleen. […] FoxP3 is an intracellular specific marker of regulatory T-cell and acts as a major regulator in the development and function of regulatory T-cell. **P<0.01; ***P<0.001, comparison was made by analysis of variance (ANOVA).

[2] = test system: OVA-induced allergic airway disease; experiment: Severity of OVA-induced allergic airway disease after FxR and TGR5 agonist pre-treatment; type: in vivo, BALB/c mice; conditions: oral gavage 30 mg/kg/day twice a week from 3 w/o
Protocol: as §1, §2
The effects of FxR and TGR5 signaling in alleviating the severity of OVA-induced allergic airway disease are investigated in this example Mice were pre-treated by FxR and TGR5 agonists, followed by sensitization and asthmatic response of mice as depicted in FIG. 6. One day after the 3rd aerosol OVA challenge, sera and bronchoalveolar lavage fluids (BALF) were collected and parameters reflecting the severity of allergic inflammation were tested. […] Neg Ctrl represents healthy control. N=12-14 mice/group.

CC[C@H]1[C@@H](O)[C@@H]2[C@H](C[C@H](O)[C@]3(C)[C@@H]([C@H](C)C[C@H](C)C(=O)O)CC[C@@H]23)[C@@]2(C)CC[C@@H](O)C[C@@H]12 [TGR5 agonist, 6-EMCA]
expansion of adaptive immune-regulatory cell, Treg [1]: can induce the expansion
expansion of innate immune-regulatory cells, PMN-MDSC [1]: can induce the expansion
four parameters indicative of allergic airway disease severity (seral OVA-specific IgE, BALF leukocyte counts, BALF IL-5, airway resistance to methacholine) ([2]; one day after 3rd aerosol OVA challenge): mitigated
airway disease severity ([2]; vs control mice receiving vehicle, N=12-14 mice/group): significantly milder airway disease
